# Experimental data as given in patent publication US10947196B2, “Beta adrenergic agonist and methods of using the same” (CURASEN THERAPEUTICS, INC., priority 2019, dated 2021).
# Where two headings read alike, the source gives them in different places.
# Experiments:
# [1] = Brain tissue binding, equilibrium dialysis (rat); type: in vitro ADME
# Method: Thawing of the frozen brain tissue homogenate (stored at −80° C.). Frozen brain tissue homogenate was thawed immediately in a room temperature bath. Note: Only use brain tissue homogenate that has been thawed no more than once.
# Preparation of working solutions. The working solutions of test compound and control compound propranolol were prepared in DMSO at the concentration of 200 μM. And then 4 μL of working solution was removed to mix with 796 μL of rat brain tissue homogenate to achieve a final concentration of 1 μM (0.5% DMSO). Brain tissue homogenate samples were vortexed thoroughly.
# Preparation of dialysis membranes. The dialysis membranes were soaked in ultrapure water for 60 minutes to separate strips, then in 20% ethanol for 20 minutes, finally in dialysis buffer for 20 minutes.
# Procedure for equilibrium dialysis. The dialysis apparatus was assembled according to the manufacturer's instruction. Each cell was filled with 150 μL of brain tissue homogenate sample and dialyzed against equal volume of dialysis buffer (PBS). The assay was performed in duplicate. The dialysis plate was sealed and incubated in an incubator at 37° C. with 5% CO2 at approximately 100 rpm for 6 hours. At the end of dialysis, seal was removed and 50 μL of samples from both buffer and brain tissue homogenate chambers were transferred into separate tubes in plate.
# Procedure for sample analysis. 50 μL of brain tissue homogenate was added to each buffer samples and an equal volume of PBS was supplemented to the collected brain tissue homogenate sample. 400 μL of room temperature quench solution (acetonitrile containing internal standards (IS, 100 nM Alprazolam, 500 nM Labetalol and 2 μM Ketoprofen)) was added to precipitate protein. Samples in plate were vortexed for 5 minutes and centrifuged at 3,220 g for 30 minutes at room temperature. And then 100 μL of the supernatant was transferred to a new 96-well plate with 100 μL water for LC-MS/MS analysis.
# Data analysis. All calculations were carried out using Microsoft Excel. […]
# Fumeans=unbound fraction measured with brain tissue homogenate […]
# β2 adrenergic receptor = β2 adrenergic receptor (Homo sapiens (Human), UniProt P07550); test: cAMP Gs dynamic HTRF assay, β2 expressing CHO cells; type: cell-based
# β2 adrenergic receptor, sequence (P07550 whole entry, species assumed): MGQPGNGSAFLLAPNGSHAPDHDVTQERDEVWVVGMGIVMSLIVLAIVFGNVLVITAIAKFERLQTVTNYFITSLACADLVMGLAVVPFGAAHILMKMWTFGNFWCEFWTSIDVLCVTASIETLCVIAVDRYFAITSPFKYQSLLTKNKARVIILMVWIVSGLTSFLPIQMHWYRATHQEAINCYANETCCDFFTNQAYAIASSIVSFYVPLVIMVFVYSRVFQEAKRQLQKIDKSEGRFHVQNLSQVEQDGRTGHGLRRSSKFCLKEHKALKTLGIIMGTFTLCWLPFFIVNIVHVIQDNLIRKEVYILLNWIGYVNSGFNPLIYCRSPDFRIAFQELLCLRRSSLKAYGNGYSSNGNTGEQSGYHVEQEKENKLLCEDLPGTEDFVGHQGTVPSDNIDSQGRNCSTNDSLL
# How it was run: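 Intracellular cAMP quantified by Eu-donor/d2-acceptor HTRF after 30 min compound exposure at 37° C in stimulation buffer with IBMX. Concentrations ran 10 μM top, 5-fold steps, 10 points. Cell lines: 1321N1 astrocytoma and CHO expressing β1 or β2; EC50 via four-parameter fit, relative efficacy against isoproterenol.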
# [2] = B2-AR, CHO-K cells, read-out: Average EC50 [Receptor subtype: B2-AR, Cell type: CHO-K]
Compound,"fraction unbound at 6 h, 1 μM ([1]; rat, brain homogenate)","Average pEC50 [Receptor subtype: B2-AR; Cell type: CHO-K1 (HitHunter)] (β2 adrenergic receptor; B2-AR, CHO-K1 (HitHunter))",EC50 (β2 adrenergic receptor; [2]) [nM],"EC50 (β2 adrenergic receptor; cAMP HTRF, read-out: β2 EC50) [nM]","fraction unbound at 6 h, 1 μM ([1]; 1 μM, rat brain tissue homogenate, dialysis 6 hours, read-out: BTB (rat), percent of unbound fraction)","EC50 (β2 adrenergic receptor; B2-AR, CHO-K1 (HitHunter), read-out: Average pEC50 [Receptor subtype: B2-AR, Cell type: CHO-K1 (HitHunter)] (converted)) [nM]"
"CC(C)(C)NC[C@H](O)c1cccc(C#N)n1 [Compound 03-5, (S)-6-(2-(tert-butylamino)-1-hydroxyethyl)picolinonitrile]",0.95,B-A,< 10,–,–,–
CC(C)(C)NC[C@H](O)c1cccc(C(F)(F)F)n1 [Compound 03-3],0.48,–,–,< 10,–,–
Cc1ncccc1[C@@H](O)CNC(C)(C)C [Compound 03-115],–,–,10 to 100,–,1,10 to 100
